The results in this text go back to US12404241B2 (Celgene Corporation, priority 2018, dated 2025).

The assay deals with T1, AR (Homo sapiens, UniProt P10275).
T1 construct: endogenous in cells; host or cells: VCaP cells
T1 sequence (P10275 1-920): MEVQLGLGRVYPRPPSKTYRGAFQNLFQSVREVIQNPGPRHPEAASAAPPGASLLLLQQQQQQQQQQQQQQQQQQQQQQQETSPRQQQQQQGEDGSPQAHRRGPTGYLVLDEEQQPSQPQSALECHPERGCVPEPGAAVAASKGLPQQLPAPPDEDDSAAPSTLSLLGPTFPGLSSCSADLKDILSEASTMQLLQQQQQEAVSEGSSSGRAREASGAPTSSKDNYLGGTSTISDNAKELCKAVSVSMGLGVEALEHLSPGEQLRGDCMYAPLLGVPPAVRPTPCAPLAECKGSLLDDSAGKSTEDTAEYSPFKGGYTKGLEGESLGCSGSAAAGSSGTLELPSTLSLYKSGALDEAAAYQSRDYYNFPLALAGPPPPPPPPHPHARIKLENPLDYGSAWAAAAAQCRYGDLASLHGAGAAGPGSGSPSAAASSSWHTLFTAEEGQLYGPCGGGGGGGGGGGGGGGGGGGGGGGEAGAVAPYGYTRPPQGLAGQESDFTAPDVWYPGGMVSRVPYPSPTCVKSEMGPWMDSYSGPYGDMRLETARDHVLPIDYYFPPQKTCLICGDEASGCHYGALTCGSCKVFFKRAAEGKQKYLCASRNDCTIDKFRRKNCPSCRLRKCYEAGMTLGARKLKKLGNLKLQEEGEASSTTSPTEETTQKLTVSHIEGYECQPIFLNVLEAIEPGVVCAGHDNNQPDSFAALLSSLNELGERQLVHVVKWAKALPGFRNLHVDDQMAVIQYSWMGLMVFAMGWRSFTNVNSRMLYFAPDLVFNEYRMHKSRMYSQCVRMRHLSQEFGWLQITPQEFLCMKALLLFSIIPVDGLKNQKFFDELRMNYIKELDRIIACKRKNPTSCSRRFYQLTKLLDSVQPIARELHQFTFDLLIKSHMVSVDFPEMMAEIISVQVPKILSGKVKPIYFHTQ
Put plainly: VCAP AR Degradation Assay. It is filed as cell-based. The following applies: for Y (AR degradation efficiency, % of DMSO control): class symbols *; for DC50: class symbols A-C, read-out: DC50. The procedure, abridged: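 Compounds were plated as 10-point 1:3 series reaching 5 μM final, then VCaP cells were seeded onto them and incubated 24 h at 37 °C. Cells were lysed cold, and total AR was measured by sandwich ELISA relative to 0.1% DMSO wells.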

On to `CC1(C)C(=O)N(c2ccc(C#N)c(C(F)(F)F)c2)C(=S)N1c1ccc(OCCN2CCN(CC(=O)Nc3cccc(NC4CCC(=O)NC4=O)c3)[C@H](C(F)(F)F)C2)c(C2CC2)c1` (stereo partly drawn) [Example 245, 2-((S)-4-(2-(4-(3-(4-cyano-3-(trifluoromethyl)phenyl)-5,5-dimethyl-4-oxo-2-thioxoimidazolidin-1-yl)-2-cyclopropylphenoxy)ethyl)-2-(trifluoromethyl)piperazin-1-yl)-N-(3-(2,6-dioxopiperidin-3-ylamino)phenyl)acetamide], for which the “Y (AR degradation efficiency, % of DMSO control)” value is listed as “* (0<Y<=25%)” and the half-maximal degradation concentration (DC50) is less than 100 nM.
The corresponding values for `CCc1cc(N2C(=S)N(c3ccc(C#N)c(C(F)(F)F)c3)C(=O)C2(C)C)ccc1OCCN1CCN(CC(=O)Nc2cccc(NC3CCC(=O)NC3=O)c2)[C@H](C(F)(F)F)C1` (stereo partly drawn) [Example 246, 2-((S)-4-(2-(4-(3-(4-cyano-3-(trifluoromethyl)phenyl)-5,5-dimethyl-4-oxo-2-thioxoimidazolidin-1-yl)-2-ethylphenoxy)ethyl)-2-(trifluoromethyl)piperazin-1-yl)-N-(3-(2,6-dioxopiperidin-3-ylamino)phenyl)acetamide] are “* (0<Y<=25%)” and less than 100 nM.
For `CCc1cc(N2C(=S)N(c3ccc(C#N)c(C(F)(F)F)c3)C(=O)C2(C)C)c(F)cc1OCCN1C[C@@H](C)N(CC(=O)Nc2cccc(NC3CCC(=O)NC3=O)c2)[C@@H](C)C1` (stereo partly drawn) [Example 247, 2-((2S,6R)-4-(2-(4-(3-(4-cyano-3-(trifluoromethyl)phenyl)-5,5-dimethyl-4-oxo-2-thioxoimidazolidin-1-yl)-2-ethyl-5-fluorophenoxy)ethyl)-2,6-dimethylpiperazin-1-yl)-N-(3-(2,6-dioxopiperidin-3-ylamino)phenyl)acetamide] the same measures were “* (0<Y<=25%)” and less than 100 nM.
In the case of `CCc1cc(N2C(=S)N(c3ccc(C#N)c(C(F)(F)F)c3)C(=O)C2(C)C)cc(F)c1OCCN1C[C@@H](C)N(CC(=O)Nc2cccc(NC3CCC(=O)NC3=O)c2)[C@@H](C)C1` (stereo partly drawn) [Example 248, 2-((2S,6R)-4-(2-(4-(3-(4-cyano-3-(trifluoromethyl)phenyl)-5,5-dimethyl-4-oxo-2-thioxoimidazolidin-1-yl)-2-ethyl-6-fluorophenoxy)ethyl)-2,6-dimethylpiperazin-1-yl)-N-(3-(2,6-dioxopiperidin-3-ylamino)phenyl)acetamide], the “Y (AR degradation efficiency, % of DMSO control)” value is reported as “* (0<Y<=25%)” and the 50% degradation concentration (DC50) is less than 100 nM.
Take `CCc1cc(N2C(=S)N(c3ccc(C#N)c(C(F)(F)F)c3)C(=O)C2(C)C)cc(C)c1OCCN1C[C@@H](C)N(CC(=O)Nc2cccc(NC3CCC(=O)NC3=O)c2)[C@@H](C)C1` (stereo partly drawn) [Example 249, 2-((2R,6S)-4-(2-(4-(3-(4-cyano-3-(trifluoromethyl)phenyl)-5,5-dimethyl-4-oxo-2-thioxoimidazolidin-1-yl)-2-ethyl-6-methylphenoxy)ethyl)-2,6-dimethylpiperazin-1-yl)-N-(3-(2,6-dioxopiperidin-3-ylamino)phenyl)acetamide]: the “Y (AR degradation efficiency, % of DMSO control)” value is reported as “*** (35%<Y<50%)” and the DC50 is 100 to 500 nM.
On to `CC(C)c1cc(N2C(=S)N(c3ccc(C#N)c(Cl)c3)C(=O)C2(C)C)ccc1OCCN1C[C@@H](C)N(CC(=O)Nc2cc(C#N)cc(NC3CCC(=O)NC3=O)c2)[C@@H](C)C1` (stereo partly drawn) [Example 250, 2-((2S,6R)-4-(2-(4-(3-(3-chloro-4-cyanophenyl)-5,5-dimethyl-4-oxo-2-thioxoimidazolidin-1-yl)-2-isopropylphenoxy)ethyl)-2,6-dimethylpiperazin-1-yl)-N-(3-cyano-5-(2,6-dioxopiperidin-3-ylamino)phenyl)acetamide], for which the “Y (AR degradation efficiency, % of DMSO control)” value is “* (0<Y<=25%)” and the half-maximal degradation concentration (DC50) was less than 100 nM.
The corresponding values for `CC(C)c1cc(N2C(=S)N(c3ccc(C#N)c(Cl)c3)C(=O)C2(C)C)ccc1OCCN1C[C@@H](C)N(CC(=O)Nc2cc(F)cc(NC3CCC(=O)NC3=O)c2)[C@@H](C)C1` (stereo partly drawn) [Example 251, 2-((2S,6R)-4-(2-(4-(3-(3-chloro-4-cyanophenyl)-5,5-dimethyl-4-oxo-2-thioxoimidazolidin-1-yl)-2-isopropylphenoxy)ethyl)-2,6-dimethylpiperazin-1-yl)-N-(3-(2,6-dioxopiperidin-3-ylamino)-5-fluorophenyl)acetamide] are “* (0<Y<=25%)” and less than 100 nM.
For `C[C@@H]1CN(CCOc2ccc(N3C(=S)N(c4ccc(C#N)c(C(F)(F)F)c4)C(=O)C3(C)C)cc2C(C)(F)F)C[C@H](C)N1CC(=O)Nc1cccc(NC2CCC(=O)NC2=O)c1` (stereo partly drawn) [Example 252, 2-((2S,6R)-4-(2-(4-(3-(4-cyano-3-(trifluoromethyl)phenyl)-5,5-dimethyl-4-oxo-2-thioxoimidazolidin-1-yl)-2-(1,1-difluoroethyl)phenoxy)ethyl)-2,6-dimethylpiperazin-1-yl)-N-(3-(2,6-dioxopiperidin-3-ylamino)phenyl)acetamide] the same measures were “* (0<Y<=25%)” and less than 100 nM.
Take `Cc1cc(OCCN2C[C@@H](C)N(CC(=O)Nc3cccc(NC4CCC(=O)NC4=O)c3)[C@@H](C)C2)c(C(C)C)cc1N1C(=S)N(c2ccc(C#N)c(C(F)(F)F)c2)C(=O)C1(C)C` (stereo partly drawn) [Example 253, 2-((2S,6R)-4-(2-(4-(3-(4-cyano-3-(trifluoromethyl)phenyl)-5,5-dimethyl-4-oxo-2-thioxoimidazolidin-1-yl)-2-isopropyl-5-methylphenoxy)ethyl)-2,6-dimethylpiperazin-1-yl)-N-(3-(2,6-dioxopiperidin-3-ylamino)phenyl)acetamide]: the “Y (AR degradation efficiency, % of DMSO control)” value is recorded as “* (0<Y<=25%)” and the DC50 lay in the range of 100 to 500 nM.
For `CCc1cc(N2C(=S)N(c3ccc(C#N)c(C(F)(F)F)c3)C(=O)C2(C)C)c(C)cc1OCCN1C[C@@H](C)N(CC(=O)Nc2cccc(NC3CCC(=O)NC3=O)c2)[C@@H](C)C1` (stereo partly drawn) [Example 254, 2-((2S,6R)-4-(2-(4-(3-(4-cyano-3-(trifluoromethyl)phenyl)-5,5-dimethyl-4-oxo-2-thioxoimidazolidin-1-yl)-2-ethyl-5-methylphenoxy)ethyl)-2,6-dimethylpiperazin-1-yl)-N-(3-(2,6-dioxopiperidin-3-ylamino)phenyl)acetamide] the same measures were “* (0<Y<=25%)” and less than 100 nM.
For `C[C@@H]1CN(CCOc2ccc(N3C(=S)N(c4cnc(C#N)c(C(F)(F)F)c4)C(=O)C3(C)C)cc2C(C)(F)F)C[C@H](C)N1CC(=O)Nc1cccc(NC2CCC(=O)NC2=O)c1` (stereo partly drawn) [Example 255, 2-((2S,6R)-4-(2-(4-(3-(6-cyano-5-(trifluoromethyl)pyridin-3-yl)-5,5-dimethyl-4-oxo-2-thioxoimidazolidin-1-yl)-2-(1,1-difluoroethyl)phenoxy)ethyl)-2,6-dimethylpiperazin-1-yl)-N-(3-(2,6-dioxopiperidin-3-ylamino)phenyl)acetamide] the same measures were “* (0<Y<=25%)” and less than 100 nM.

One may read the DC50 as the concentration giving 50% degradation.
